biological target: T1, Recombinant mouse PD-L1 (Mus musculus, UniProt Q9EP73); test: Rescue of mouse splenocyte proliferation in the presence of recombinant PD-L1 (CFSE proliferation assay); assay type: cell-based; conditions: compound at 100 nM; CFSE-labelled mouse splenocytes + anti-CD3/CD28 + PD-L1, 72 h; normalised to stimulated splenocyte proliferation as 100%
T1 construct: Fc (Fc chimera); purchased R&D Systems 1019-B7-100
Protocol: Example 3: Rescue of Mouse Splenocyte Proliferation in the Presence of Recombinant PD-L1
Recombinant mouse PD-L1 (rm-PDL-1, cat no: 1019-B7-100; R&D Systems) were used as the source of PD-L1.
Mouse splenocytes harvested from 6-8 weeks old C57 BL6 mice; RPMI 1640 (GIBCO, Cat #11875); DMEM with high glucose (GIBCO, Cat #D6429); Fetal Bovine Serum [Hyclone, Cat #SH30071.03]; Penicillin (10000 unit/mL)-Streptomycin(10,000 μg/mL) Liquid (GIBCO, Cat #15140-122); MEM Sodium Pyruvate solution 100 mM (100×), Liquid (GIBCO, Cat #11360); Nonessential amino acid (GIBCO, Cat #11140); L-Glutamine (GIBCO, Cat #25030); Anti-CD3 antibody (eBiosciences—16-0032); Anti-CD28 antibody (eBiosciences—16-0281); ACK lysis buffer (1 mL) (GIBCO, Cat #-A10492); Histopaque (density—1.083 gm/mL) (SIGMA 10831); Trypan blue solution (SIGMA-T8154); 2 mL Norm Ject Luer Lock syringe-(Sigma 2014-12); 40 µm nylon cell strainer (BD FALCON 35230); Hemacytometer (Bright line-SIGMA Z359629); FACS Buffer (PBS/0.1% BSA): Phosphate Buffered Saline (PBS) pH 7.2 (HiMedia TS1006) with 0.1% Bovine Serum Albumin (BSA) (SIGMA A7050) and sodium azide (SIGMA 08591); 5 mM stock solution of CFSE: CFSE stock solution was prepared by diluting lyophilized CFSE with […] of Dimethyl sulfoxide (DMSO C2H6SO, SIGMA-D-5879) and aliquoted in to tubes for further use. Working concentrations were titrated from […] to 1 μM. (eBioscience—650850-85); 0.05% Trypsin and 0.02% EDTA (SIGMA 59417C); 96-well format ELISA plates (Corning CLS3390); BD FACS caliber (E6016); Recombinant mouse B7-H1/PDL1 Fc Chimera, (rm-PD-L1 cat no: 1019-B7-100).
Splenocytes harvested in a 50 mL falcon tube by mashing mouse spleen in a 40 µm cell strainer were further treated with 1 mL ACK lysis buffer for 5 min at room temperature. After washing with 9 mL of RPMI complete media, cells were re-suspended in 3 mL of 1×PBS in a 15 mL tube. 3 mL of Histopaque was added carefully to the bottom of the tube without disturbing overlaying splenocyte suspension. After centrifuging at 800×g for 20 min at room temperature, the opaque layer of splenocytes was collected carefully without disturbing/mixing the layers. Splenocytes were washed twice with cold 1×PBS followed by total cell counting using Trypan Blue exclusion method and used further for cell based assays.
Splenocytes were cultured in RPMI complete media (RPMI+10% fetal bovine serum+1 mM sodium pyruvate+10,000 units/mL penicillin and […] streptomycin) and maintained in a CO2 incubator with 5% CO2 at 37° C.
CFSE is a dye that passively diffuses into cells and binds to intracellular proteins. 1×10^6 cells/mL of harvested splenocytes were treated with […] of CFSE in pre-warmed 1×PBS/0.1% BSA solution for 10 min at 37° C. Excess CFSE was quenched using 5 volumes of ice-cold culture media to the cells and incubated on ice for 5 min. CFSE labelled splenocytes were further given three washes with ice cold complete RPMI media. […] Cells were harvested and washed thrice with ice cold FACS buffer and % proliferation was analysed by flow cytometry with 488 nm excitation and 521 nm emission filters.
Percent splenocyte proliferation was analysed using cell quest FACS program and percent rescue of splenocyte proliferation by compound was estimated after deduction of % background proliferation value and normalising to % stimulated splenocyte proliferation (positive control) as 100%. […]

T1 sequence (Q9EP73 with tags, fused parts or gaps limits assumed): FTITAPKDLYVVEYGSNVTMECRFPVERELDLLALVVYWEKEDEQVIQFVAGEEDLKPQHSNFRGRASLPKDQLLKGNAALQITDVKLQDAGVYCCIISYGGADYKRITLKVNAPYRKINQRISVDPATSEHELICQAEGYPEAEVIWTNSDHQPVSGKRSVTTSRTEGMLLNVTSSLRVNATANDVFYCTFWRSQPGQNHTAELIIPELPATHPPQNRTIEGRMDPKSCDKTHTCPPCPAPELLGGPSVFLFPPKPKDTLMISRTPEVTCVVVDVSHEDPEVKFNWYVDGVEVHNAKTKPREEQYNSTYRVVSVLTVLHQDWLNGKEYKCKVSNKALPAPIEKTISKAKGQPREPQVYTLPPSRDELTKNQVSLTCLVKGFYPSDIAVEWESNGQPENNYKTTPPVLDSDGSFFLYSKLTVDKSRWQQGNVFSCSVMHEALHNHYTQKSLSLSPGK

Percent rescue of splenocyte proliferation (@100 nM) [%]	SMILES
28	CC(O)[C@H](NC(=O)N[C@H](c1nnc(-c2ccco2)o1)C(C)C)C(=O)O (some centres unmarked) [Compound 7]
60	COc1ccccc1-c1nnc([C@H](CC(N)=O)NC(=O)N[C@@H](CCCCN)C(=O)O)o1 [Compound 11]
15	COc1ccccc1-c1nnc([C@H](CC(N)=O)NC(=O)N[C@@H](CCSC)C(=O)O)o1 [Compound 12]
63	CC(O)[C@H](NC(=O)N[C@@H](CC(N)=O)c1nnc(-c2cnccn2)o1)C(=O)O (some centres unmarked) [Compound 13]
7	COc1ccccc1-c1nnc([C@H](CC(N)=O)NC(=O)N[C@H](C(=O)O)C(C)O)o1 (some centres unmarked) [Compound 16]

Reference: patent publication US20180044305A1, “3-SUBSTITUTED 1,3,4-OXADIAZOLE AND THIADIAZOLE COMPOUNDS AS IMMUNOMODULATORS” (AURIGENE DISCOVERY TECHNOLOGIES LIMITED, priority 2015, published 2018)
